Values after ≈ are worked out from the molar mass of the structure shown. Like-named read-outs stand apart in the source and are kept apart here.
Columns and labels:
[1] = LogD at pH 7.4, miniaturised shake flask; type: physicochemical
Experimental: The LogD pH7.4 assay was performed using a miniaturised shake flask method. A solution of a pre-saturated mixture of 1-octanol and PBS (1:1, v/v) and the test compound (75 µM) was incubated at 25 °C with constant shaking (850 rpm) for 2 hours. After incubation the organic and aqueous phases were separated, and samples of each phase transferred to plate for dilution. The organic phase was diluted to 1000-fold and the aqueous phase was diluted 20-fold. The samples were quantitated using LC-MS/MS. The experiment was carried out in duplicate. Propranolol, amitriptyline and midazolam were used as reference standards. […]

[2] = Metabolic stability in human liver microsomes; type: in vitro ADME; conditions: 1 µM compound, 0.5 mg/mL pooled human liver microsomes
Experimental: Metabolic stability study using human liver microsomes
A solution of the test compounds in phosphate buffer solution (1 µM) was incubated in pooled human liver microsomes (0.5 mg/mL) for 0, 5, 20, 30, 45 and 60 minutes at 37 °C in the presence and absence of NADPH regeneration system. The reaction was terminated with the addition of ice-cold acetonitrile containing system suitability standard at designated time points. The sample was centrifuged (4200 rpm) for 20 minutes at 20 °C and the supernatant was half diluted in water and then analysed by means of LC-MS/MS. Compound clearance (CLint,app) was […]
calculated using standard methodology. The experiment was carried out in duplicate.
Verapamil, diltiazem, phenacetin and imipramine were used as reference standards. […]

in vitro = type: cell-based; conditions: human
Experimental: Here, this state of the art screening platform was applied to CQL (Figure 3). During solubilization and reformatting activities, 40 samples were identified with solubility issues and removed from the screening set, thereby leaving 5810 compounds (4623 scored + 1187 randomly selected). A primary screen was conducted at a single concentration (2 μM) against P. falciparum NF54 (nanoGlo readout over 72 h incubation). […] These compounds were then tested in five-point dose–response curve (DRC) assays, each of which provides key information to decide which compound(s) to progress (highlighted in blue). Five different assays were carried out, including three parasite growth assays over 72 h of incubation (P. falciparum NF54 in both nanoGlo and pLDH read-outs and P. falciparum Dd2 in pLDH read-out), one parasite growth assay over 12 h of incubation (P. falciparum NF54 in nanoGlo read-out) in order to evaluate the speed of action, and a cytotoxicity assay against human HepG2 cells over 72 h of incubation. Out of 36 screening active compounds (36 + 0) fulfilling all of the ideal criteria, 12 were deemed attractive in terms of chemical novelty and diversity for further progression and evaluation. This set of compounds was further complemented with others that passed at least three of the five DRC criteria, together with assessments of chemical novelty and diversity, which led to 33 selected compounds. Twenty-two compounds (those still available from commercial suppliers) were repurchased, and the compound efficacy was retested against P. falciparum 3D7 (pLDH readout over 72 h incubation) and human HepG2 cells over 72 h of incubation at a different testing center. […]
(§1) The Medicines for Malaria Venture (MMV)’s P. falciparum asexual blood stage phenotypic screening platform was used to experimentally validate the selected compounds. Full details can be found in a recent publication.5 Briefly, the HTS cascade relies on a newly developed P. falciparum strain genetically modified to express a nano-luciferase reporter gene driven by the ef1α promoter. In addition to providing similar results compared to a fluorescence-based assay, this reporter provided a robust read-out for parasite replication with incubation times as short […]
(§2) The screening platform consists of a primary screening where the compounds were tested at a single concentration (2 μM) against the chloroquine and pyrimethamine sensitive P. falciparum strain NF54 using a nanoGlo detection reagent. Compounds that exceeded a Z-score threshold of -4 were screened a second time in this assay format in addition to an orthogonal assay (P. falciparum NF54, pLDH). Only the compounds inhibiting parasite growth by more than 30% were then tested in five dose-response curve (DRC) assays. These assays were designed to evaluate different aspects any future antimalarial drug has to fulfil: - sensitivity (P. falciparum NF54, nanoGlo and P. falciparum NF54, pLDH); - efficacy against resistant parasite strains (P. falciparum Dd2, pLDH); - low cellular toxicity (HepG2 cells). In addition, to evaluate their speed of action, […]
versus 72 hours for the assays previously mentioned. […]
Compounds still commercially available for re-stock were purchased and retested in a different laboratory against P. falciparum 3D7 with a pLDF read-out, […]
(§3) and in human HepG2 cells. […]
(§4) in the parasite growth inhibition assay, and higher than 10 μM in the cell viability assay obtained in two distinct locations. […]

P. falciparum 3D7 [3] = experiment: P. falciparum 3D7 parasite growth, pLDH readout, 72 h incubation; type: cell-based; conditions: Plasmodium falciparum, P. falciparum 3D7, pLDH readout, read-out: 3D7 LDH (72 h) IC50
Experimental: Afterwards, the remaining compounds were evaluated for their attractiveness derived from the chemical diversity relative to existing antimalarial drugs (Table S2 / Supplementary file SMILES-Table S2.xls) and calculated using Tanimoto similarity based on 2D molecular fingerprints. At this stage the list of remaining compounds was expanded with additional compounds that fulfilled at least 3 of the DRC assays criteria. Compounds still commercially available for re-stock were purchased and retested in a different laboratory against P. falciparum 3D7 with a pLDF read-out, […]
as §3, §4

P. falciparum Dd2 = P. falciparum Dd2 parasite growth, pLDH readout, 72 h incubation; type: cell-based; conditions: Plasmodium falciparum, read-out: Dd2 LDH (72 h) IC50
Experimental: Here, this state of the art screening platform was applied to CQL (Figure 3). During solubilization and reformatting activities, 40 samples were identified with solubility issues and removed from the screening set, thereby leaving 5810 compounds (4623 scored + 1187 randomly selected). A primary screen was conducted at a single concentration (2 μM) against P. falciparum NF54 (nanoGlo readout over 72 h incubation). […] These compounds were then tested in five-point dose–response curve (DRC) assays, each of which provides key information to decide which compound(s) to progress (highlighted in blue). Five different assays were carried out, including three parasite growth assays over 72 h of incubation (P. falciparum NF54 in both nanoGlo and pLDH read-outs and P. falciparum Dd2 in pLDH read-out), one parasite growth assay over 12 h of incubation (P. falciparum NF54 in nanoGlo read-out) in order to evaluate the speed of action, and a cytotoxicity assay against human HepG2 cells over 72 h of incubation. Out of 36 screening active compounds (36 + 0) fulfilling all of the ideal criteria, 12 were deemed attractive in terms of chemical novelty and diversity for further progression and evaluation. This set of compounds was further complemented with others that passed at least three of the five DRC criteria, together with assessments of chemical novelty and diversity, which led to 33 selected compounds. Twenty-two compounds (those still available from commercial suppliers) were repurchased, and the compound efficacy was retested against P. falciparum 3D7 (pLDH readout over 72 h incubation) and human HepG2 cells over 72 h of incubation at a different testing center.
No unexpected or unusually high safety hazards were encountered.
as §1, §2

[4] = Metabolic stability in cryopreserved rat hepatocytes; type: in vitro ADME
Experimental: Metabolic stability using cryopreserved rat hepatocytes
A solution of the test compound in Krebs-Henseleit buffer solution (1 µM) was incubated in […]
CO2, 95% relative humidity). The reaction was terminated with the addition of ice-cold acetonitrile containing system suitability standard at designated time points. The sample was centrifuged (4200 rpm) for 20 minutes at 20 °C and the supernatant was half diluted in water and then analysed by means of LC-MS/MS. Compound clearance (CLint,app) was calculated using standard methodology. The experiment was carried out in duplicate. Diltiazem, 7-ethoxy coumarin, propranolol and midazolam were used as reference standards. […]

[5] = Solubility in PBS pH 7.4, miniaturised shake flask; type: physicochemical; conditions: kinetic from dmso stock, 25 °C
Experimental: Solubility in phosphate buffered saline (PBS) pH7.4
The solubility assay was performed using a miniaturised shake flask method. A solution of phosphate buffered saline (PBS) and the test compound (200 µM) was incubated at 25 °C with constant shaking (600 rpm) for 2 hours. The samples were filtered using a multiscreen solubility filter plate. The filtrate was half diluted in acetonitrile. A five-point linearity curve was prepared in PBS:Acetonitrile (1:1, v/v) at 200, 150, 75, 25 and 2.5 µM. Blank, linearity and test samples (n = 2) were transferred to a UV readable plate and the plate was scanned for absorbance. Best […]
fit calibration curves were constructed using the calibration standards and used to determine the test sample solubility. The experiment was carried out in duplicate. Diethylstilbestrol, haloperidol and sodium diclofenac were used as reference standards. […]

P. falciparum 3D7 [6] = tested on: P. falciparum 3D7; set-up: method as in ChEMBL (version 32), ref 29; conditions: ref ChEMBL (version 32), cited from earlier work
[7] = pooled cryopreserved rat hepatocytes, 1 µM compound, pooled rat hepatocytes 1×10^6 cells/mL, read-out: rat hepatocytes CLint
[8] = phosphate buffered saline, aqueous buffer, PBS pH 7.4, test compound 200 µM, 2 hours
[9] = read-out: Antimalarial activity: XC50
[10] = 1-octanol/PBS (1:1, v/v), pre-saturated, 1-octanol/PBS, pH 7.4, 25 °C, read-out: LogD pH 7.4
[11] = phosphate buffered saline, aqueous buffer, PBS pH 7.4, test compound 200 µM, 2 hours, read-out: kinetic solubility

SMILES | logD ([1]; 1-octanol/PBS (1:1, v/v), pre-saturated, 1-octanol/PBS, pH 7.4, 25 °C) | microsomal CLint at 1 h, 1 µM [2] [µL/min/mg] | IC50 at 72 h (in vitro) [µM] | IC50 (P. falciparum 3D7 [3]) [µM] | IC50 (P. falciparum Dd2; DD2, 72 h) [µM] | hepatocyte CLint at 1.5 h, 1 µM [4, 7] [µL/min/1e6 cells] | solubility kinetic at 2 h, 200 µM [5, 8] [µM] | IC50 (P. falciparum 3D7 [6]; [9]) [µM] | IC50 (P. falciparum 3D7 [6]; read-out: Antimalarial activity: inhibition) [µM] | logD at 2 h, 75 µM [1, 10] | solubility kinetic at 2 h [5, 11] [µM] | logD at 2 h, 75 µM ([1]; pH 7.4) | IC50 (P. falciparum Dd2; P. falciparum Dd2 (drug-resistant), pLDH readout, 72 h) [µM] | hepatocyte CLint at 1.5 h, 1 µM ([4]; rat, hepatocytes) [µL/min/1e6 cells] | solubility kinetic at 2 h ([5]; pH 7.4, aqueous buffer) [µM]
O=C(NC1CCN(CCOc2ccc(Cl)cc2)CC1)c1c[nH]c2ccncc2c1=O [MMV1798946] | 2.9 | 14 | > 25 | 0.75 | 2 | 2 | 170 (≈ 72.6 µg/mL) |  |  |  |  |  |  |  | 
COc1c(C2CCN(CCN3CCC(CNC(=O)c4ccc(-c5ccc(C#N)cc5)cc4)CC3)CC2)ccc2c1CCCC2 [CHEMBL528171] |  |  |  |  |  |  |  | 0.445 |  |  |  |  |  |  | 
Oc1cc(CN2CCC(O)(Cn3ccnc3)CC2)nc2c(Cl)cccc12 [CHEMBL3476473] |  |  |  |  |  |  |  |  | 0.882 |  |  |  |  |  | 
c1ccc(-c2ccnc(C3CCN(CC45CNCC4C5)CC3)n2)cc1 (centres unmarked) [MMV1797658] |  | 3.5 | 22.1 | 0.78 | 1.5 | 7.2 |  |  |  | 0.5 | ≥ 200 |  |  |  | 
CC1CCN(Cc2cccc(C(=O)NCc3ccc(F)c(-c4ccc(CN5CCN[C@H](C)C5)cc4)c3)c2)CC1 [CHEMBL580242] |  |  |  |  |  |  |  | 1.46 |  |  |  |  |  |  | 
CN1CCN(CCCCNC2CC3CCC(C2)N3Cc2ccccc2)CC1 (centres unmarked) [MMV1797951] |  | 8.3 | 13.8 | 1 |  |  |  |  |  |  |  | -0.2 | 0.98 | 1.4 | ≥ 200
COc1ccc(-c2cncc(C(=O)NCC3CCN(CCN(C)C)CC3)c2)cc1 [MMV1799348] |  | 3.5 | > 25 | 1.1 | 2.7 | 1.2 | 198 (≈ 78.5 µg/mL) |  |  | 1.2 |  |  |  |  | 
Cc1c(CN2CCC(O)(Cn3ccnc3)CC2)[nH]c2c(Cl)cccc12 [MMV1801316] |  | 24.1 | > 25 | 1.5 | 3.6 | 2.7 | 86 (≈ 30.9 µg/mL) |  |  | 2.8 |  |  |  |  | 
CN1CCC(Oc2ccc(NC(=O)c3cn4ccnc4s3)cn2)CC1 [MMV1797331] |  | 3.7 | 21.6 | 1.9 | 2 | 1.9 |  |  |  | 1 | ≥ 200 |  |  |  | 
CC1(N2CCC2)CCC(NCC2CCN(Cc3ccccc3)C2)CC1 (centres unmarked) [MMV1798925] |  | 3.5 | 19.1 | 1.1 | 1.5 | 7.2 | 173 (≈ 59.1 µg/mL) |  |  | 0.3 |  |  |  |  | 
Cc1cnccc1N1CCCN(Cc2ccccc2OCCN2CCN(C)CC2)CC1 [MMV1802771] |  | 11 | 20 | 0.81 | 1.1 | 2.6 | 100 (≈ 42.4 µg/mL) |  |  | 1 |  |  |  |  | 
